In ChEMBL document CHEMBL3352775, “Identification of substituted 3-hydroxy-2-mercaptocyclohex-2-enones as potent inhibitors of human lactate dehydrogenase” (Bioorg Med Chem Lett, 2014):
≈ marks a conversion by molar mass, not a printed value.

Experiments:
[1] = biological target: T1, L-lactate dehydrogenase A chain (Homo sapiens, UniProt P00338); assay: Inhibition of human recombinant carboxy-terminal His-tagged LDHA by UV endpoint assay
[2] = Clearance in Sprague-Dawley rat liver microsomes at 1 uM up to 60 mins by LC-MS/MS analysis; type: ADME
[3] = Clearance in human liver microsomes at 1 uM up to 60 mins by LC-MS/MS analysis; type: ADME
[4] = Aqueous solubility of the compound in PBS buffer at pH 7.2; type: physicochemical
Cytochrome P450 3A4 = Cytochrome P450 3A4 (Homo sapiens, UniProt P08684); assay: Inhibition of CYP3A4 (unknown origin); type: ADME
Cytochrome P450 2D6 = Cytochrome P450 2D6 (Homo sapiens, UniProt P10635); assay: Inhibition of CYP2D6 (unknown origin); type: ADME
Cytochrome P450 2C9 = Cytochrome P450 2C9 (Homo sapiens, UniProt P11712); assay: Inhibition of CYP2C9 (unknown origin); type: ADME
Cytochrome P450 1A2 = biological target: T2, Cytochrome P450 1A2 (Homo sapiens, UniProt P05177); assay: Inhibition of CYP1A2 (unknown origin); type: ADME
T2 sequence (P05177 whole entry): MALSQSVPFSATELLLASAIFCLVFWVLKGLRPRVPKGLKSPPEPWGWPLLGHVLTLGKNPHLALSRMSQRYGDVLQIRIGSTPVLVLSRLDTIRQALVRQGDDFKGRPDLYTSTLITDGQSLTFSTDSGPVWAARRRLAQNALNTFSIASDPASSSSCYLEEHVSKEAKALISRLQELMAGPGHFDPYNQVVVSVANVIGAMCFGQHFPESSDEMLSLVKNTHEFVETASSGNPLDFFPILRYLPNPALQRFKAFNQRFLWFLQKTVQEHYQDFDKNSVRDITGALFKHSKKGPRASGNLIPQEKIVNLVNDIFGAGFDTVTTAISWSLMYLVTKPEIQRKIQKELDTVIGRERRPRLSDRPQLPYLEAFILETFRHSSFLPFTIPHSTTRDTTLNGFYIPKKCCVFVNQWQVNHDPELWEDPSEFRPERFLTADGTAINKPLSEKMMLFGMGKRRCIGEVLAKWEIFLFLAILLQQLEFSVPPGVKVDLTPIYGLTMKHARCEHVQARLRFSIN

[5] = biological target: L-lactate dehydrogenase B chain (Homo sapiens, UniProt P07195)
Description: Inhibition of human recombinant carboxy-terminal His-tagged LDHB by UV endpoint assay

[6] = biological target: T1, L-lactate dehydrogenase A chain; assay: Inhibition of human recombinant carboxy-terminal His-tagged LDHA by SPR assay
[7] = Fraction unbound in rat plasma by LC-MS/MS analysis; type: ADME, cell-free
[8] = Fraction unbound in human plasma by LC-MS/MS analysis; type: ADME, cell-free
[9] = Apparent permeability from apical to basolateral side in MDCK cells at 2 uM by LC-MS/MS analysis; type: ADME, cell-based, Canis lupus familiaris; conditions: dog
[10] = biological target: T1, L-lactate dehydrogenase A chain; assay: Inhibition of human recombinant carboxy-terminal His-tagged LDHA by MS endpoint assay
[11] = biological target: T1, L-lactate dehydrogenase A chain; assay: Inhibition of human recombinant carboxy-terminal His-tagged LDHA by SPR assay in presence of +NADH
[12] = Dissociation constant, pKa of the compound; type: physicochemical
[13] = AUC (0 to 24 hrs) in Sprague-Dawley rat at 0.5 mg/kg, iv; type: ADME, organism-based; design: time < 24 hr, dose 0.5 mg/kg, route intravenous; conditions: plasma
[14] = Clearance in Sprague-Dawley rat plasma at 0.5 mg/kg, iv by LC-MS/MS analysis; type: ADME, organism-based; design: dose 0.5 mg/kg, route intravenous
[15] = Volume of distribution at steady state in Sprague-Dawley rat at 0.5 mg/kg, iv; type: ADME, organism-based; design: dose 0.5 mg/kg, route intravenous; conditions: in vivo, read-out: Vdss
[16] = Half life in Sprague-Dawley rat plasma at 0.5 mg/kg, iv; type: ADME, organism-based; design: dose 0.5 mg/kg, route intravenous
[17] = AUC (0 to 24 hrs) in Sprague-Dawley rat at 2 mg/kg, po; type: ADME, organism-based; design: time < 24 hr, dose 2 mg/kg, route oral; conditions: plasma
[18] = Half life in Sprague-Dawley rat plasma at 2 mg/kg, po; type: ADME, organism-based; design: dose 2 mg/kg, route oral
[19] = Oral bioavailability in Sprague-Dawley rat plasma at 2 mg/kg; type: ADME, organism-based
[20] = biological target: T3, Malate dehydrogenase, cytoplasmic (Homo sapiens, UniProt P40925); assay: Inhibition of human recombinant carboxy-terminal His-tagged MDH-1
T3 sequence (P40925 whole entry): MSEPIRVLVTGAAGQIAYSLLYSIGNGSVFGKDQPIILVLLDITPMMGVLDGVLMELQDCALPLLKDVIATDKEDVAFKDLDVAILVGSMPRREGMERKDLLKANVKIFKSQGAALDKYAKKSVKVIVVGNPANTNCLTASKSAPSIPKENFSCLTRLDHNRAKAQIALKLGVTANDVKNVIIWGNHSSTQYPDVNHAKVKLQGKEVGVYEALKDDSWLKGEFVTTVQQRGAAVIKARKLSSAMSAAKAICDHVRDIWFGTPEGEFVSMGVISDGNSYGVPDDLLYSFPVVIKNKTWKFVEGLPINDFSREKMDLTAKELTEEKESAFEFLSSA

[21] = biological target: T4, Malate dehydrogenase, mitochondrial (Homo sapiens, UniProt P40926); assay: Inhibition of human recombinant carboxy-terminal His-tagged MDH-2
T4 sequence (P40926 whole entry): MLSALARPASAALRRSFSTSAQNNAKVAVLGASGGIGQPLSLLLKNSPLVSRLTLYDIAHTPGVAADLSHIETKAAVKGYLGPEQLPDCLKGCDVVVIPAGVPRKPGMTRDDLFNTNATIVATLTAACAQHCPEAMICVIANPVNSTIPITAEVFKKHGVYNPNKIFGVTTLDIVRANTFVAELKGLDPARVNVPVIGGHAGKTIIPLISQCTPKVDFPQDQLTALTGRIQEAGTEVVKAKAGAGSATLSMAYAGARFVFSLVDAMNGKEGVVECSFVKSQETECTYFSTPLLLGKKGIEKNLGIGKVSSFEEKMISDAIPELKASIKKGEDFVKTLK

Chain of L-lactate dehydrogenase B chain (P07195 whole entry): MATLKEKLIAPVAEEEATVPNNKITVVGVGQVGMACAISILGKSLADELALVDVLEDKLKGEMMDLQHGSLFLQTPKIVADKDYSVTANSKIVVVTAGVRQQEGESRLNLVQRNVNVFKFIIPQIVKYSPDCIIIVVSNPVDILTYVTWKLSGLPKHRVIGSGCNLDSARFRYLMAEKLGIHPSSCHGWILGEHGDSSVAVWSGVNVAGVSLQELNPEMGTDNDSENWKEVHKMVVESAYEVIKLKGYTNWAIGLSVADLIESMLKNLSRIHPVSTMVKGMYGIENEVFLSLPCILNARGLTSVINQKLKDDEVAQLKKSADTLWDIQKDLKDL
Chain of Cytochrome P450 2D6 (P10635 whole entry): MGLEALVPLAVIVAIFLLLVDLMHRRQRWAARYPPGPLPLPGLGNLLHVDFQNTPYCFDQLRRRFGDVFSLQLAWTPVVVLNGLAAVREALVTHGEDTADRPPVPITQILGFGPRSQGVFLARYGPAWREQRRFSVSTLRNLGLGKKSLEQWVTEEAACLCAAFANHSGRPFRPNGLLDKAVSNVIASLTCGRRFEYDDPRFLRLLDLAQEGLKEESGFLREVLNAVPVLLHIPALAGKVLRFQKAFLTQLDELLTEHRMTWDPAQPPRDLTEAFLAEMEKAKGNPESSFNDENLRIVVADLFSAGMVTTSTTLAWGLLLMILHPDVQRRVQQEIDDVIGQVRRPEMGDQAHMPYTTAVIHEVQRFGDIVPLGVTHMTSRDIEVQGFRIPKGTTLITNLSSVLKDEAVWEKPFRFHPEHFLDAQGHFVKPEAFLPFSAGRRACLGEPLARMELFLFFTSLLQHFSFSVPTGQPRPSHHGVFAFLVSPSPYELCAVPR
Chain of Cytochrome P450 3A4 (P08684 whole entry): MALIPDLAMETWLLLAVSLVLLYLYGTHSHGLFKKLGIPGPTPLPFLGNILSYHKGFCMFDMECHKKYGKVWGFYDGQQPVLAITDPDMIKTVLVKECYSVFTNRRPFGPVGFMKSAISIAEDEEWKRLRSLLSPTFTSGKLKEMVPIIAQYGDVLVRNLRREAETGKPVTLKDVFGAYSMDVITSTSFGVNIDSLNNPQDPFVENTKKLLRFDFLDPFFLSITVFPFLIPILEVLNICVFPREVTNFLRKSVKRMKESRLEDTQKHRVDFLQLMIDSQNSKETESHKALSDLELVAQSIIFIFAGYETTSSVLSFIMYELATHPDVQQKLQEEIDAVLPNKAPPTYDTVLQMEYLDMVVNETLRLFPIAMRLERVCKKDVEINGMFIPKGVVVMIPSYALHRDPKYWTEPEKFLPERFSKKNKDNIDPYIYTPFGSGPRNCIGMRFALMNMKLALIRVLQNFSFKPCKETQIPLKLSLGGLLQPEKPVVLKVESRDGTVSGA
Chain of Cytochrome P450 2C9 (P11712 whole entry): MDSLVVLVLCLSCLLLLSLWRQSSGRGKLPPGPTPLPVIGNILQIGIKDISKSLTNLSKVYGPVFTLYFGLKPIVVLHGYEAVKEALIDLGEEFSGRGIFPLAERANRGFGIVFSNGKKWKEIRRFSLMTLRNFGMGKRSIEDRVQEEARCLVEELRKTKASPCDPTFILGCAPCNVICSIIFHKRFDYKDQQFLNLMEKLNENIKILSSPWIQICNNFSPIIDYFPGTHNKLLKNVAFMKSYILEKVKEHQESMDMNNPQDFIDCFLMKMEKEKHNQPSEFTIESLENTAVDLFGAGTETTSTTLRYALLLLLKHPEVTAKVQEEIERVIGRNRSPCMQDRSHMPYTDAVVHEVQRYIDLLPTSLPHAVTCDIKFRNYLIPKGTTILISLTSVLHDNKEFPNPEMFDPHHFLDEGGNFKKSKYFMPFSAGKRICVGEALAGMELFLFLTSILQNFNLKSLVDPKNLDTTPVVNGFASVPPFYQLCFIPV

SMILES | IC50 [1] | CLhep predicted at 1 µM [2] | CLhep predicted at 1 µM [3] | solubility [4] | IC50 (Cytochrome P450 3A4) | IC50 (Cytochrome P450 2D6) | IC50 (Cytochrome P450 2C9) | IC50 (Cytochrome P450 1A2) | IC50 [5] | Kd [6] | fraction unbound [7] | fraction unbound [8] | Papp A→B at 2 µM [9] | other results
O=C1CC(c2c(C(F)(F)F)cccc2C(F)(F)F)CC(O)=C1Sc1ccccc1Cl (stereo unspecified) | 15 µM | 38 mL/min/kg | 18 mL/min/kg | 143 µM (≈ 66.8 µg/mL) | > 5 µM | > 5 µM | > 5 µM | > 5 µM | 7.4 µM |  |  |  |  | 
O=C1CC(c2c(Cl)cccc2C(F)(F)F)CC(O)=C1Sc1ccccc1Cl (stereo unspecified) | 1 µM | 37 mL/min/kg | 17 mL/min/kg | 117 µM (≈ 50.7 µg/mL) | > 5 µM | > 5 µM | > 5 µM | > 5 µM |  | 0.5 µM |  |  |  | 
O=C1CC(c2ccccc2)CC(O)=C1Sc1ccccc1Cl (stereo unspecified) | 4.6 µM | 14 mL/min/kg | 3.9 mL/min/kg | 147 µM (≈ 48.6 µg/mL) | > 5 µM | > 5 µM | > 5 µM | > 5 µM |  | 4.3 µM | 0.002 | 0.001 | 18 ×10⁻⁶ cm/s | 
N#Cc1ccccc1SC1=C(O)CC(c2c(Cl)cccc2Br)CC1=O (stereo unspecified) | 0.45 µM | 31 mL/min/kg | 15 mL/min/kg | 75 µM (≈ 32.6 µg/mL) | > 5 µM | > 5 µM | > 5 µM | > 5 µM | 2 µM | 0.24 µM | 0.005 | 0.002 | 14 ×10⁻⁶ cm/s | 
O=C1CC(c2ccccc2)CC(O)=C1Sc1ccccc1[N+](=O)[O-] (stereo unspecified) | 1.7 µM |  |  |  |  |  |  |  |  | 771 µM |  |  |  | IC50 [10]: 0.88 µM; Kd [11]: 3.5 µM; pKa [12]: 2.63
O=C1CC(c2c(Cl)cccc2Cl)CC(O)=C1Sc1ccccc1Cl (stereo unspecified) | 0.87 µM | 27 mL/min/kg | 14 mL/min/kg | 128 µM (≈ 51.2 µg/mL) | > 5 µM | > 5 µM | > 5 µM | > 5 µM |  | 1.8 µM | 0.002 | 0.005 | 17 ×10⁻⁶ cm/s | AUC(0-t) at 24 h [13]: 60.3 µM·h; clearance [14]: 0.35 mL/min/kg; Vd [15]: 0.39 L; half-life [16]: 13.2 h; AUC(0-t) at 24 h [17]: 142 µM·h; half-life [18]: 10.7 h; bioavailability [19]: 45%; IC50 [20]: > 100 µM; IC50 [21]: > 100 µM
N#Cc1ccccc1SC1=C(O)CC(c2ccccc2)CC1=O (stereo unspecified) | 1.6 µM | 5.2 mL/min/kg | 1.6 mL/min/kg | 118 µM (≈ 37.9 µg/mL) | > 5 µM | > 5 µM | > 5 µM | > 5 µM |  | 1.5 µM | 0.01 | 0.001 | 4.1 ×10⁻⁶ cm/s | 
N#Cc1ccccc1SC1=C(O)CC(c2c(Cl)cccc2Cl)CC1=O (stereo unspecified) | 0.83 µM | 24 mL/min/kg | 12 mL/min/kg | 117 µM (≈ 45.7 µg/mL) | > 5 µM | > 5 µM | > 5 µM | > 5 µM | 4.9 µM | 0.43 µM |  |  |  | 
